Assay results as given in patent publication US10597388B2, “Pyridazinone herbicides” (FMC CORPORATION, priority 2014, dated 2020).

How the values were obtained:
Assay in all cases: Test D controlled growth environment herbicide test, pre- and postemergence
Assay type in all cases: in vivo
[1] = test system: chamomile (scentless chamomile, Matricaria inodora)
Description: (§1) Seeds of plant species selected from bluegrass (annual bluegrass, Poa annua), blackgrass (Alopecurus myosuroides), Canada thistle (Cirsium arvense), canarygrass (Phalaris minor), chickweed (common chickweed, Stellaria media), geranium, cutleaf (cutleaf geranium, Geranium dissectum), galium (catchweed bedstraw, Galium aparine), bromegrass, downy (downy bromegrass, Bromus tectorum), field poppy (Papaver rhoeas), field violet (Viola arvensis), foxtail, green (green foxtail, Setaria viridis), deadnettle (henbit deadnettle, Lamium amplexicaule), ryegrass, Italian (Italian ryegrass, Lolium multiflorum), kochia (Kochia scoparia), lambsquarters (Chenopodium album), oilseed rape (Brassica napus), pigweed (Amaranthus retroflexus), chamomile (scentless chamomile, Matricaria inodora), Russian thistle (Salsola kali), speedwell (bird's-eye speedwell, Veronica persica), barley, spring (spring barley, Hordeum vulgare), wheat, spring (spring wheat, Triticum aestivum), buckwheat, wild (wild buckwheat, Polygonum convolvulus), mustard, wild (wild mustard, Sinapis arvensis), oat, wild (wild oat, Avena fatua), radish, wild (wild radish, Raphanus raphanistrum), windgrass (Apera spica-venti), barley, winter (winter barley, Hordeum vulgare), and wheat, winter (winter wheat, Triticum aestivum) were planted into a silt loam soil and treated preemergence with test chemicals formulated in a non-phytotoxic solvent mixture which included a surfactant.
(§2) At the same time, these species were planted in pots containing Redi-Earth® planting medium (Scotts Company, 14111 Scottslawn Road, Marysville, Ohio 43041) comprising spaghnum peat moss, vermiculite, wetting agent and starter nutrients and treated with postemergence applications of the test chemicals formulated in the same manner. Plants ranged in height from 2 to 18 cm (1- to 4-leaf stage). Treated plants and controls were maintained in a controlled growth environment for 14 to 21 d after which time all species were compared to controls and visually evaluated. Plant response ratings, summarized in Table D, are based on a scale of 0 to 100 where 0 is no effect and 100 is complete control. A dash (-) response means no test result.

[2] = test system: barley, spring (spring barley, Hordeum vulgare)
Description: as §1, §2

[3] = test system: wheat, spring (spring wheat, Triticum aestivum)
Description: as §1, §2

[4] = test system: oat, wild (wild oat, Avena fatua)
Description: as §1, §2

[5] = test system: windgrass (Apera spica-venti)
Description: as §1, §2

[6] = test system: radish, wild (wild radish, Raphanus raphanistrum)
Description: as §1, §2

[7] = test system: oilseed rape (Brassica napus)
Description: as §1, §2

[8] = test system: field violet (Viola arvensis)
Description: as §1, §2

[9] = test system: speedwell (bird's-eye speedwell, Veronica persica)
Description: as §1, §2

[10] = test system: mustard, wild (wild mustard, Sinapis arvensis)
Description: as §1, §2

[11] = test system: deadnettle (henbit deadnettle, Lamium amplexicaule)
Description: as §1, §2

[12] = test system: bromegrass, downy (downy bromegrass, Bromus tectorum)
Description: as §1, §2

[13] = test system: lambsquarters (Chenopodium album)
Description: as §1, §2

[14] = Postemergence, 31 g ai/ha, scale 0 to 100 (0 no effect, 100 complete control)
[15] = Postemergence, 125 g ai/ha, visual rating on scale 0 (no effect) to 100 (complete control), 14 to 21 d
[16] = Postemergence, 250 g ai/ha, scale 0 to 100 (0 no effect, 100 complete control)
[17] = Preemergence, 62 g ai/ha, scale 0 to 100 (0 no effect, 100 complete control)
[18] = Preemergence, 125 g ai/ha, scale 0 to 100 (0 no effect, 100 complete control)
[19] = Preemergence, 250 g ai/ha, scale 0 to 100 (0 no effect, 100 complete control)
[20] = postemergence, 62 g ai/ha, scale 0 to 100, 0 no effect, 100 complete control

Cc1ccc2ccccc2c1-c1c(O)c(C)nn(C)c1=O [Compound 59] was tested, and the “Chamomile plant response rating” value [1, 14] was 80, the “Plant response rating, Chamomile” value [1, 15] was 85 and the “Plant response rating, Chamomile” value [1, 16] was 100. The “Plant response rating (scale of 0 to 100), Chamomile” value ([1]; Preemergence, 31 g ai/ha) was 100, the “Plant response rating, Chamomile” value [1, 17] was 95 and the “Plant response rating, Chamomile” value [1, 18] was 100. The “Plant response rating, Chamomile” value [1, 19] was 100, the “Plant response rating, Chamomile” value [1, 20] was 80 and the “Barley, Spring plant response rating” value [2, 14] was 25. For the same compound, the “Plant response rating, Barley, Spring” value [2, 15] was 40, the “Plant response rating, Barley, Spring” value [2, 16] was 60 and the “Plant response rating (scale of 0 to 100), Barley, Spring” value ([2]; Preemergence, 31 g ai/ha) was 5. For the same compound, the “Plant response rating, Barley, Spring” value [2, 17] was 25, the “Plant response rating, Barley, Spring” value [2, 18] was 40 and the “Plant response rating, Barley, Spring” value [2, 19] was 60. The “Plant response rating, Barley, Spring” value [2, 20] was 30, the “Wheat, Spring plant response rating” value [3, 14] was 40 and the “Plant response rating, Wheat, Spring” value [3, 15] was 70. The “Plant response rating, Wheat, Spring” value [3, 16] was 80, the “Plant response rating (scale of 0 to 100), Wheat, Spring” value ([3]; Preemergence, 31 g ai/ha) was 35 and the “Plant response rating, Wheat, Spring” value [3, 17] was 65. The “Plant response rating, Wheat, Spring” value [3, 18] was 80, the “Plant response rating, Wheat, Spring” value [3, 19] was 85 and the “Plant response rating, Wheat, Spring” value [3, 20] was 45. For the same compound, the “Oat, Wild plant response rating” value [4, 14] was 80, the “Plant response rating, Oat, Wild” value [4, 15] was 95 and the “Plant response rating, Oat, Wild” value [4, 16] was 98. For the same compound, the “Plant response rating (scale of 0 to 100), Oat, Wild” value ([4]; Preemergence, 31 g ai/ha) was 90, the “Plant response rating, Oat, Wild” value [4, 17] was 90 and the “Plant response rating, Oat, Wild” value [4, 18] was 95. The “Plant response rating, Oat, Wild” value [4, 19] was 100, the “Plant response rating, Oat, Wild” value [4, 20] was 90 and the “Windgrass plant response rating” value [5, 14] was 75. The “Plant response rating, Windgrass” value [5, 15] was 80, the “Plant response rating, Windgrass” value [5, 16] was 85 and the “Plant response rating (scale of 0 to 100), Windgrass” value ([5]; Preemergence, 31 g ai/ha) was 85. The “Plant response rating, Windgrass” value [5, 17] was 85, the “Plant response rating, Windgrass” value [5, 18] was 100 and the “Plant response rating, Windgrass” value [5, 19] was 100. For the same compound, the “Plant response rating, Windgrass” value [5, 20] was 80, the “Radish, Wild plant response rating” value [6, 14] was 95 and the “Plant response rating, Radish, Wild” value [6, 15] was 100. The “Plant response rating, Radish, Wild” value [6, 16] was 100, the “Plant response rating, Radish, Wild” value [6, 17] was 85 and the “Plant response rating, Radish, Wild” value [6, 18] was 95. For the same compound, the “Plant response rating, Radish, Wild” value [6, 19] was 100, the “Plant response rating, Radish, Wild” value [6, 20] was 95 and the “Oilseed Rape plant response rating” value [7, 14] was 60. For the same compound, the “Plant response rating, Oilseed Rape” value [7, 15] was 85, the “Plant response rating, Oilseed Rape” value [7, 16] was 90 and the “Plant response rating (scale of 0 to 100), Oilseed Rape” value ([7]; Preemergence, 31 g ai/ha) was 20. For the same compound, the “Plant response rating, Oilseed Rape” value [7, 17] was 30, the “Plant response rating, Oilseed Rape” value [7, 18] was 50 and the “Plant response rating, Oilseed Rape” value [7, 19] was 80. For the same compound, the “Plant response rating, Oilseed Rape” value [7, 20] was 70, the “Field Violet plant response rating” value [8, 14] was 75 and the “Plant response rating, Field Violet” value [8, 15] was 95. For the same compound, the “Plant response rating, Field Violet” value [8, 16] was 95, the “Plant response rating (scale of 0 to 100), Field Violet” value ([8]; Preemergence, 31 g ai/ha) was 80 and the “Plant response rating, Field Violet” value [8, 17] was 90. For the same compound, the “Plant response rating, Field Violet” value [8, 18] was 95, the “Plant response rating, Field Violet” value [8, 19] was 100 and the “Plant response rating, Field Violet” value [8, 20] was 80. For the same compound, the “Speedwell plant response rating” value [9, 14] was 65, the “Plant response rating, Speedwell” value [9, 15] was 100 and the “Plant response rating, Speedwell” value [9, 16] was 100. The “Plant response rating (scale of 0 to 100), Speedwell” value ([9]; Preemergence, 31 g ai/ha) was 100, the “Plant response rating, Speedwell” value [9, 17] was 100 and the “Plant response rating, Speedwell” value [9, 18] was 100. The “Plant response rating, Speedwell” value [9, 19] was 100, the “Plant response rating, Speedwell” value [9, 20] was 100 and the “Mustard, Wild plant response rating” value [10, 14] was 90. The “Plant response rating, Mustard, Wild” value [10, 15] was 100, the “Plant response rating, Mustard, Wild” value [10, 16] was 100 and the “Plant response rating (scale of 0 to 100), Mustard, Wild” value ([10]; Preemergence, 31 g ai/ha) was 95. The “Plant response rating, Mustard, Wild” value [10, 17] was 95, the “Plant response rating, Mustard, Wild” value [10, 18] was 100 and the “Plant response rating, Mustard, Wild” value [10, 19] was 100. For the same compound, the “Plant response rating, Mustard, Wild” value [10, 20] was 100, the “Deadnettle plant response rating” value [11, 14] was 80 and the “Plant response rating, Deadnettle” value [11, 15] was 90. The “Plant response rating, Deadnettle” value [11, 16] was 100, the “Plant response rating (scale of 0 to 100), Deadnettle” value ([11]; Preemergence, 31 g ai/ha) was 50 and the “Plant response rating, Deadnettle” value [11, 17] was 90. The “Plant response rating, Deadnettle” value [11, 18] was 90, the “Plant response rating, Deadnettle” value [11, 19] was 100 and the “Plant response rating, Deadnettle” value [11, 20] was 80. For the same compound, the “Bromegrass, Downy plant response rating” value [12, 14] was 35, the “Plant response rating, Bromegrass, Downy” value [12, 15] was 70 and the “Plant response rating, Bromegrass, Downy” value [12, 16] was 85. The “Plant response rating (scale of 0 to 100), Bromegrass, Downy” value ([12]; Preemergence, 31 g ai/ha) was 75, the “Plant response rating, Bromegrass, Downy” value [12, 17] was 85 and the “Plant response rating, Bromegrass, Downy” value [12, 18] was 90. For the same compound, the “Plant response rating, Bromegrass, Downy” value [12, 19] was 95, the “Plant response rating, Bromegrass, Downy” value [12, 20] was 70 and the “Lambsquarters plant response rating” value [13, 14] was 90. The “Plant response rating, Lambsquarters” value [13, 15] was 90, the “Plant response rating, Lambsquarters” value [13, 16] was 95 and the “Plant response rating (scale of 0 to 100), Lambsquarters” value ([13]; Preemergence, 31 g ai/ha) was 95. The “Plant response rating, Lambsquarters” value [13, 17] was 100, the “Plant response rating, Lambsquarters” value [13, 18] was 100 and the “Plant response rating, Lambsquarters” value [13, 19] was 100. The “Plant response rating, Lambsquarters” value [13, 20] was 85.
